According to US10067124B2, “Immunoassay method for pro-gastrin-releasing peptide” (Abbott Laboratories, priority 2006, dated 2018):

System: serine protease such as thrombin
Assay: Stabilization of ProGRP in serum by addition of PMSF (Example 2)
Assay type: biochemical
Conditions: PMSF added to serum, room temperature storage
Protocol: After PMSF (manufactured by Sigma-Aldrich Co.) was added to serum, ProGRP 31-98 antigen amino no acid synthesized by the Fmoc method was added thereto. After the mixture was stored at room temperature, the concentration of ProGRP was assayed using the Architect ProGRP. […] PMSF is a substance that is used to inactivate the activity of an enzyme of a serine protease such as thrombin and the presence of a protease such as thrombin can be considered to be the cause of ProGRP inactivation.

Compound: O=S(=O)(F)Cc1ccccc1 [PMSF, Phenylmethanesulfonyl Fluoride]
- effect on decrease in the activity of ProGRP in serum: significantly suppressed
